From patent US20230134859A1, “METHOD FOR SCREENING FOR, METHOD FOR PRODUCING, AND METHOD FOR DESIGNING DRUG ACTIVE INGREDIENTS” (SKY PHARMA CO., LTD., priority 2020, published 2023)

Test system: cardiomyocytes
Assay: Test Example 8: enhancement of myocardium in zebrafish embryo (nkx2.5 in situ hybridization, blood cells pumped per heartbeat)
Type: in vivo
Conditions: test compounds = Compounds 1 to 7
Protocol: Zebrafish embryos at 10 hours after fertilization were held with the dorsal side of the head up on a coffin (plastic plate with V-shaped grooves for holding), and a glass capillary was inserted into a midline between head and ear vesicles (heart primordium). Nitrogen gas pressure (15 picosiemens) was applied for 15 to 45 milliseconds and injected into the gap just below the neural tube. The test compound concentration was 100 μM/E3, and 0.025% (final concentration) phenol red was mixed as a tracer of the injection solution. The injection was performed in pulses with a foot pedal and continued until phenol red was distributed in an elliptical shape with a major axis of 200 μm from the insertion point. After injection, embryos were cultured at 28.5° C. for 14 hours in E3. After chorions were removed with tweezers, the embryos were fixed with 4% paraformaldehyde/PBS at normal temperature for 1 hour, and in situ hybridization was performed overnight at 65° C. in the presence of a DIG probe of nk×2.5 as a cardiac muscle marker according to a conventional method. After washing, cardiomyocytes were stained by an alkali phosphatase color reaction using an anti-DIG antibody. The stained embryos were washed with PBS, embedded in 75% glycerin/PBS and localized, and then microscopically photographed with incident light. The number of tested individuals was unified with n=80 for each compound.
In addition, the zebrafish embryos injected with the test compound by the above-described method were cultured at 28.5° C. until 48 hours after fertilization, embedded in 3% methyl cellulose/E3, and a moving image was photographed. The number of blood cells pumped in one heartbeat in time-lapse was counted n=15 and compared to Ringer injected individuals.

CNS(=O)(=O)c1ccccc1Nc1nc(Nc2ccc(N3CCN(C)CC3)cc2OC)ncc1Cl [Compound 7, 2-[[5-Chloro-2-[2-methoxy-4-(4-methylpiperazin-1-yl)anilino]pyrimidin-4-yl]amino]-N-methylbenzenesulfonamide]
amount of cardiomyocytes (in situ hybridization, nkx2.5) (100 μM injected at heart primordium 10 h after fertilization, vs control, n=80): increase in the amount of cardiomyocytes was observed | stroke volume of blood cells (moving image of the heartbeat) (100 μM, 48 h after fertilization): remarkably improved | number of blood cells pumped in one heartbeat (100 μM, 48 h after fertilization, vs control, n=15): remarkable increase in the number of blood cells pumped in one heartbeat
